Drawing on PubChem BioAssay AID1250 (SRMLSC, 2008), this text covers CPE inhibition for 85 molecules.

The structures appear in SMILES notation. Activity calls are given as the source filed them.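 The calls were made as follows: active = inhibition of at least 30% at one or more tested concentrations; inactive = inhibition below 30% at every dose.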

The nature of this experiment: antiviral protection against BTV-induced cell death – arbovirus, BSR cells, confirmation (AID 1250). Particulars: BSR cells, Bluetongue virus CPE, ATP luminescence, 72 h; at 20 µM (top of the series).
For the molecule `O=C(Nc1nc2ccccc2s1)c1ccc(OCC2CCCO2)cc1` (stereo not given), the CPE inhibition is 5.66% (inactive). Take `Cc1ccc(C(=O)Nc2ccccc2SCC2CSc3nc4ccccc4c(=O)n32)cc1` (stereo not given): the CPE inhibition was 14.6% (inactive).

As for `O=c1oc(/C=C/c2ccco2)nc2sc3c(c12)CCC3`, the CPE inhibition was 21.9% (inactive). To `CCSc1nc2c(sc3nc(C)cc(C)c32)c(=O)[nH]1` belongs 18% (inactive); to `O=C(CSCc1ccc(Cl)cc1)Nc1cccc(C(=O)Nc2ccccc2C(=O)O)c1`, 23.5% (inactive). Take `CCSc1nnc(NC(=O)c2ccc(Br)s2)s1`: the CPE inhibition is 16.8% (inactive). As for `CC1CCCN(C(=O)c2cccc(S(=O)(=O)Nc3cc(C(F)(F)F)ccc3Cl)c2)C1` (stereo not given), the figure is 28.2% (inactive).

`COc1ccc(-c2csc(NC(=O)Cc3cccc4ccccc34)c2C(=O)O)cc1`: the CPE inhibition is 24.9% (inactive). On to `C/C(=N\NC(=O)COc1ccc([N+](=O)[O-])cc1)C(C)(C)C`, for which the CPE inhibition is 4.19% (inactive). To `CC1(C)C2CCC(C2)C1(C)NC(=O)CNCc1cccs1` (stereo not given) belongs 2.65% (inactive); to `CN(c1ccccc1)c1ccc(/C=C(\CCC(=O)O)c2nc3ccccc3s2)cc1[N+](=O)[O-]`, 21.4% (inactive). As for `COC(=O)c1ccccc1NC(=O)C1CCN(C(=O)c2cc(OC)c(OC)c(OC)c2)CC1`, the figure is 1.96% (inactive); as for `O=c1[nH]c(=O)n(C(c2ccccc2)c2ccccc2)cc1Br`, 18.7% (inactive).

As to `CN1CCN(C(=S)NC(=O)c2ccc(Cl)cc2)CC1`, the CPE inhibition is 29.2% (inactive). As for `N#Cc1c(NC(=O)CSc2nnc(-c3ccccc3)o2)sc2c1CCCC2`, the figure is -0.12% (inactive).

On to `C/C(=N\Nc1nc2ccccc2[nH]1)c1ccc2c(c1)OCO2`, for which the CPE inhibition was 8.76% (inactive). As for `O=C(O)c1cc(N/N=C/c2ccc(OCc3ccccc3)cc2)ccc1Cl`, the figure is 19.7% (inactive); as for `Cc1ccc(C(=O)N/C(=C\c2cccs2)C(=O)NCc2cccnc2)cc1`, 10.2% (inactive); as for `COc1ccc(C(=O)/C=C/c2ccc(OC)c(Cn3nnc4ccccc43)c2)cc1`, 15.8% (inactive).

Take `C#CCSc1ncc(S(=O)(=O)c2ccccc2)c(=O)[nH]1`: the CPE inhibition was 1.65% (inactive). To `Cc1ccc(C2CC(=O)c3cnn(-c4nc(C)cc(C)n4)c3C2)cc1` (stereo not given) belongs 5.7% (inactive); to `COc1ccc2[nH]c(=O)c(CN(CCCN(C)C)C(=O)Nc3ccc(F)cc3)cc2c1`, 7.66% (inactive); to `O=C(Nc1sc2c(c1C(=O)O)CCC2)c1cccs1`, 14.7% (inactive).

On to `Cc1cccc(-n2nc(C)c3c(C(=O)O)cc(-c4cccs4)nc32)c1`, for which the CPE inhibition is 24.9% (inactive). As for `COc1ccc(Cl)cc1NC(=O)C1COc2ccccc2O1` (stereo not given), the CPE inhibition was 26.3% (inactive). Regarding `N#CC(C#N)=Cc1cc2ccccc2nc1N1CCCCC1`, the CPE inhibition was 12.6% (inactive). As for `CC(C)CCN(C(=S)NC(=O)C1CCCCC1)c1c(N)n(Cc2ccccc2)c(=O)[nH]c1=O`, the figure is 7% (inactive); as for `Cc1ccc(NC2c3ncccc3C(=O)N2C2CCCCC2)cc1C` (stereo not given), 12.7% (inactive). Take `O=C(NNC(=O)c1cccs1)c1ccc([N+](=O)[O-])cc1`: the CPE inhibition is 4.62% (inactive).

Regarding `O=CNCC(=O)NCCc1ccc(Cl)cc1`, the CPE inhibition was 1.49% (inactive).

As for `Oc1ccccc1CN1CCCN(Cc2ccccc2O)C1`, the CPE inhibition was 2.17% (inactive). Consider `O=C(O)CSc1nnc(CNc2cccc(C(F)(F)F)c2)n1Cc1ccco1`, for which the CPE inhibition is 3.89% (inactive). To `COc1cccc(-n2c(C)cc(/C=C3/C(=N)N4C(=NC3=O)SN=C4S(C)(=O)=O)c2C)c1` belongs 19.6% (inactive); to `COc1ccc(C(=O)Nc2cc(Cl)ccc2C(=O)O)cc1`, 17.7% (inactive); to `N#Cc1ccccc1NC(=O)c1ccccc1OCC(=O)NCc1ccco1`, 6.97% (inactive). Consider `Cc1nn(CC(O)Cn2c3c(c4ccccc42)CCN(C)C3=O)c(C)c1Br` (stereo not given), for which the CPE inhibition is 22.4% (inactive). In the case of `O=C(C1CC1)N1CCN=C1SCc1ccc(Cl)cc1`, the CPE inhibition is 0% (inactive).

As to `OC(CNC1CCCCC1)CNC1CCCCC1`, the CPE inhibition was 7.57% (inactive). To `Oc1ccc(Br)cc1-c1cc(-c2ccccc2)n[nH]1` belongs 19.6% (inactive).

`CCn1c(COc2cccc3ccccc23)nnc1SCC(=O)OC1CCCCC1`: the CPE inhibition is 2.2% (inactive). To `Cc1ccc(S(=O)(=O)Oc2ccc(C)cc2/C=N/N=C2\NC(=O)C(C)S2)cc1` (stereo not given) belongs 25.2% (inactive); to `CCOc1ccc(-c2csc(NC(=O)CSCC(=O)O)n2)c2ccccc12`, 17.7% (inactive).

As for `Fc1ccc2nc(Nc3nc4c(F)cccc4s3)sc2c1`, the CPE inhibition was 20.9% (inactive). Consider `COCCn1c(C)cc(C(=O)CSc2cc(C)c3ccccc3n2)c1C`, for which the CPE inhibition was 7.16% (inactive). Regarding `CCCCN(CCCC)CC(O)COc1ccccc1Br` (stereo not given), the CPE inhibition was 15.3% (inactive). To `CN(Cc1ccccc1)c1nc(N)c([N+](=O)[O-])c(NCc2ccccc2)n1` belongs -7.95% (inactive); to `COc1ccccc1NC(=S)NCCSc1ccc(C)cc1`, 10.1% (inactive).

For `CCCc1cc(=O)[nH]c(SCc2ccc(C#N)cc2)n1`, the CPE inhibition was 14.6% (inactive). As for `Cc1ccc(S(=O)(=O)N2CCN(c3ccnc4cc(Cl)ccc34)CC2)cc1C`, the figure is 10.9% (inactive); as for `COC(=O)c1ccccc1NC(=O)CN1CCC(n2nnc3cc(C(F)(F)F)ccc32)CC1`, 16.3% (inactive). As for `Cc1cccc(Sc2nc(-c3ccccc3)ncc2C(=O)O)c1`, the figure is 7.57% (inactive). To `COc1cc(/C=C/C(=O)c2c(O)n(CCc3ccccc3)c(=O)[nH]c2=O)ccc1O` belongs 13% (inactive); to `COc1ccc(OC)c(NC(=O)c2cc(-c3ccc(C)cc3O)n[nH]2)c1`, 9.4% (inactive); to `Cc1cccc(/C(N)=N/OC(=O)COc2ccc(Cl)cc2)c1`, 5.92% (inactive). For `CC(=O)NCC1=C(NC(C)=O)C2CC1C(C)(C)C2C` (stereo not given), the CPE inhibition is 2.41% (inactive). Regarding `O=C1NC(=Nc2ccc(Cl)cc2)SC1Cc1cccc(Cl)c1Cl` (stereo not given), the CPE inhibition is 12.4% (inactive). To `CCOc1cccc(C(=O)Nc2ccccc2N2CCN(C(=O)C(C)C)CC2)c1` belongs 9.61% (inactive). As for `CCCCCCc1cc2cc(C(=O)Nc3ccc(OC)cc3)c(=O)oc2cc1O`, the figure is -3.41% (inactive).

For the molecule `CCOC(=O)CSc1nc2c(sc(=S)n2-c2ccc(OCC)cc2)c(=O)[nH]1`, the CPE inhibition was 19.1% (inactive). As for `COC(=O)c1cc(NC(=S)NCc2ccc(Cl)cc2)cc(C(=O)OC)c1`, the figure is -1.18% (inactive). To `Cc1cc(/C=C2/C(=N)N3C(=NC2=O)SN=C3S(C)(=O)=O)c(C)n1-c1ccc(F)cc1` belongs 20.6% (inactive); to `Cc1nn(CC(=O)OCCOc2ccc(Br)cc2)c(C)c1[N+](=O)[O-]`, 2.41% (inactive); to `CC1CCN(C2=NC(=O)/C(=C/c3cn[nH]c3-c3ccccc3)S2)CC1`, -2.7% (inactive).

As for `Cc1ccc(-c2cc(-c3ccccc3)no2)c(O)c1`, the CPE inhibition is 15.6% (inactive). On to `CC1=Nc2ccc(C)cc2/C1=C/c1c(N)n2c(S(=O)(=O)C(C)C)nsc2nc1=O`, for which the CPE inhibition was 15.9% (inactive). To `CCOc1ccc(-n2c(C)cc(/C=C3/C(=N)N4C(=NC3=O)SN=C4S(C)(=O)=O)c2C)cc1` belongs 25.5% (inactive); to `Cc1ccccc1N=C1NC(=O)/C(=C/c2cccn2-c2cccc(C(=O)O)c2)S1`, 21.3% (inactive); to `Cc1cc(C(=O)CSc2nnc(-c3ccco3)o2)c(C)n1Cc1ccco1`, 2.98% (inactive).

As to `Cc1ccc(S(=O)(=O)N2CCN(Cc3cc(C(C)C)ccc3O)CC2)cc1`, the CPE inhibition was 15.9% (inactive). To `COc1ccc(C)cc1NC(=O)C1COc2ccccc2O1` (stereo not given) belongs 11.1% (inactive). In the case of `COc1ccc(CCNCC(O)c2ccccc2)cc1` (stereo not given), the CPE inhibition was 13.7% (inactive). To `CCCC(=O)Nc1cccc(NC(=O)c2ccc([N+](=O)[O-])cc2Cl)c1` belongs 1.21% (inactive); to `O=C(NC1CCN(Cc2ccccc2)CC1)c1cccc(S(=O)(=O)Nc2cc(C(F)(F)F)ccc2Cl)c1`, 21.7% (inactive); to `O=C(O)c1cccc(-n2cccc2/C=C2/NC(=O)N(c3ccc(Cl)cc3)C2=O)c1`, 10.4% (inactive). With `Fc1ccccc1COc1ccc2ccccc2c1CNc1nn[nH]n1`, the CPE inhibition is 11.5% (inactive). As for `COc1cccc(C2CC(c3ccc(Cl)cc3Cl)Nc3nc(N)nn32)c1` (stereo not given), the figure is 2.82% (inactive); as for `O=C(O)c1cccc(NC(=S)NC(=O)c2ccc(-c3ccc(Cl)cc3)o2)c1`, 29.9% (inactive); as for `CCOc1ccc(-n2c(=S)sc3c(=O)[nH]c(SCC(=O)C(C)(C)C)nc32)cc1`, 7.23% (inactive).

Regarding `CC(C)S(=O)(=O)c1nsc2nc(=O)c(/C=C3\C=Nc4ccccc43)c(N)n12`, the CPE inhibition is 22% (inactive). To `O=c1c(Cl)c(N2CCN(c3ccc(F)cc3)CC2)cnn1C12CC3CC(CC(C3)C1)C2` belongs -3.76% (inactive). To `NC(=O)c1cc([N+](=O)[O-])ccc1NCc1cccnc1` belongs 3.11% (inactive); to `Oc1ccccc1CNCCCNCc1ccccc1O`, 20.8% (inactive); to `COc1ccc2c(c1)c1nc3ccccc3nc1n2Cc1ccc(OC)c(OC)c1`, 15.8% (inactive).

For `O=S(=O)(c1ccc(Oc2ccc(Cl)cc2)c(S(=O)(=O)N2CCCCC2)c1)N1CCCCC1`, the CPE inhibition was 22.6% (inactive).

With `COCCn1c(-c2ccc(Cl)cc2)cnc1SCC(=O)NCc1cccs1`, the CPE inhibition was 18.9% (inactive).
